According to patent publication US20180194967A1, “ANTIMICROBIAL PEPTIDE AMPHIPHILE COATINGS” (priority 2017, published 2018):
Where a SMILES comes first, the peptide text is derived from it. Bridges are numbered along the chain shown (N, C = ends). [ ]: non-standard residue; d: D form. The star is where a group is joined. d2Nal = N[C@H](Cc1ccc2ccccc2c1)C(=O)O; Palmitoyl = CCCCCCCCCCCCCCCC(=O)*

Experiment: Coating thickness by optical profilometry
Assay type: physicochemical
Details: submersion coating on PVC-coated glass slide
Description: For surface topology studies, PVC powder was purchased and dissolved in 3:2 cyclopentanone:tetrahydrofuran at a concentration of 10 mg/mL. PVC solution (50 μL) was used to spin-coat 1 cm diameter glass slides for 1 minute at 3,000 RPM. The PVC-coated slides were allowed to dry for 24 hours prior to submersion coating in 2 mL AMPA solutions. Coated products were removed from submersion and dried in 24-well plates under aseptic conditions for at least 24 hours prior to characterization. The coating was assessed via contact angle to evaluate surface hydrophilicity and optical profilometry to measure coating thickness. […] Electron microscopy of the AMPA coatings has shown no presence of micelles.

coating thickness: approximately 30 nm
Structure (SMILES): CCCCCCCCCCCCCCCC(=O)NCCCC[C@H](NC(=O)[C@H]1CCCN1C(=O)[C@H](NC(=O)[C@@H]1CCCCNC(=O)C[C@H](NC(=O)[C@@H](NC(=O)[C@H](CCCNC(=N)N)NC(=O)[C@@H](NC(=O)[C@H](CCCNC(=N)N)NC(=O)[C@@H](NC(=O)[C@H](CCCNC(=N)N)NC(=O)[C@@H](N)Cc2ccccc2)[C@@H](C)CC)C(C)C)C(C)C)C(=O)N[C@@H](CCCNC(=N)N)C(=O)N[C@@H](CCCNC(=N)N)C(=O)N[C@H](Cc2ccc3ccccc3c2)C(=O)N[C@@H](Cc2ccccc2)C(=O)N[C@@H](Cc2c[nH]c3ccccc23)C(=O)N[C@@H](CCCNC(=N)N)C(=O)N1)C(C)C)C(N)=O [AB01-KPalm, FRIRVRV[DRR-dNal(2′)-FWRK]dV-Dp [SEQ. ID. NO. 1]-K(Palm)] (H-FRIRVRVDRR[d2Nal]FWRK[dV][dP]K(Palmitoyl)-NH2; lactam 8-15; N-terminus and C-terminus assumed)
